For assay [1], the system named is age-related cognitive deficits. As to conditions: increasing acetylcholine release from presynaptic nerve terminals; cited from earlier work.
The target of assay [2] is central muscarinic agonist site. Briefly: Receptor [^3H]Cis-methyldioxalane Assay (RCMD). The class given is binding. As to conditions: rat cerebral cortex tissue; radiolabeled cis-methyldioxalane; head prints (0.1 μm).
Assay [3] concerns central muscarinic antagonist site. The class given is binding, rat. As to conditions: read-out: RQNB (1 μM) IC50.
The test system of assay [4] is human SK-N-SH cells bearing muscarinic binding sites.
Protocol: In the Muscarinic Induced Inositol Phosphate Accumulation Assay (MIPA) human SK-N-SH cells bearing muscarinic binding sites are incubated with the test compound. The production of inositol phosphates is then measured. Stimulation of inositol phosphate turnover reflects the degree of muscarinic agonist activity of the test compound. The concentration of test compound required to produce a response 50% of the maximum is then determined.
The subject of assay [5] is aged humans and nonhuman primates. The note with it: aged humans and nonhuman primates with decreased cognition; acetylcholinesterase inhibitors such as physostigmine; cited from earlier work.
The subject of the next assay is mice. The note with it: cited from earlier work.

Where a name gives a salt, the structure may show the parent alone. Read-outs that look alike come from different tables or passages of the source.

With `Nc1ccncc1N` [3,4-diaminopyridine], in assay [1], the “effect on age-related cognitive deficits” value is on record as “ameliorate age-related cognitive deficits”.

For orientation: IC50 means the concentration that inhibits the measured activity by half. `CNC(=O)N(C)CC#CCN1CCCC1` [Example 1a, N,N'-Dimethyl-N-4-(1-pyrrolidinyl)-2-butynyl]-urea, hydrochloride]: the half-inhibitory concentration (IC50) came out at 0.0434 µM in assay [2] and 8.79 µM in assay [3]. Also, the “MIPA (ED50)” value in assay [4] is given as 2.91 × 10^-5.

For `CNC(=O)N(C)CC#CCN(C)C.Cl` [Example 2, N-[4-(Dimethylamino)-2-butynyl]-N,N'-dimethyl-urea, monohydrochloride], the IC50 was 0.275 µM in assay [2] and 100 µM in assay [3] (rat cerebral cortex tissue, radiolabeled quinuclidinyl benzilate, head prints (1 μM)). Besides, in assay [4], the “MIPA (ED50)” value was 1.84 × 10^-5.

With `CNC(=O)Oc1ccc2c(c1)[C@]1(C)CCN(C)[C@@H]1N2C` [physostigmine], the memory improvement entry in assay [5] was “improved memory”.

For the molecule `C(#CCN1CCCC1)CN1CCCC1` [tremorine, 1,4-dipyrrolidino-2-butyne], in the assay on mice, the “tremor of the head and limbs and its duration” value was “profound tremor of the head and limbs lasting for more than one hour”.
